Experiments:
[1] = molecular target: T1, maize endosperm ADP-glucose pyrophosphorylase (AGP), wild type (small subunit BT2 WT-STYL, SEQ ID NO: 2, with wild type large subunit Shrunken-2) (Zea mays, UniProt P55241+Q947C0); conditions: effector varied 0-3 mM, 37° C., 10 minutes
T1 sequence (Q947C0 1-475): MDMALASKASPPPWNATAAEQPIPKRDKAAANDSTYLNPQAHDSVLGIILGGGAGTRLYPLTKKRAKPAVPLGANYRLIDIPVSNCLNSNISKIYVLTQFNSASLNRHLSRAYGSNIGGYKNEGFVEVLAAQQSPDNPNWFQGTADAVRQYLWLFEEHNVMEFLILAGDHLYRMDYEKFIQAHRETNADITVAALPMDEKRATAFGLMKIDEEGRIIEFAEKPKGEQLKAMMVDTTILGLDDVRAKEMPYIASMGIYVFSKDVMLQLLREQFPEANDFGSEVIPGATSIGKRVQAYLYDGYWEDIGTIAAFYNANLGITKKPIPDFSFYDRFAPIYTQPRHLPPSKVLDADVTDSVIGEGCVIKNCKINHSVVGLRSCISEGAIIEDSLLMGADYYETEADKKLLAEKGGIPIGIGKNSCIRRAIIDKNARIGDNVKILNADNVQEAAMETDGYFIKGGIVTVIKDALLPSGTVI
T1 sequence (P55241 46-516): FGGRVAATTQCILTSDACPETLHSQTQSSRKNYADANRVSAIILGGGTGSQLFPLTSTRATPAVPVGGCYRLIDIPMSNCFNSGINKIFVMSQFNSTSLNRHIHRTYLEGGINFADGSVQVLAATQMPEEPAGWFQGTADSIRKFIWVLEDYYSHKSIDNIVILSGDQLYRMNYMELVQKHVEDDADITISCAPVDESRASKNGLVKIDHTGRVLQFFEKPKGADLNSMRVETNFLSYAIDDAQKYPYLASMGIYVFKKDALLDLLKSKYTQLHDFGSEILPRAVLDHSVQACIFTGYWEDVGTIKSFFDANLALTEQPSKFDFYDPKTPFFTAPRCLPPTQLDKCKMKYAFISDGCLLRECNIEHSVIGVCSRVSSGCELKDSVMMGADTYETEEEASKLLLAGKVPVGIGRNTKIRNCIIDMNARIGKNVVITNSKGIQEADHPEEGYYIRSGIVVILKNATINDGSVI
Experimental: (§1) Protein inductions were as described by Greene and Hannah (1998) with a few modifications.
(§2) The 3-Phosphoglyceric acid (3-PGA) was added at varying amounts, as specified. When varied, the substrates ranged from 0-5 mM. Reactions were terminated after 5 minutes by boiling in a water bath for 1 minute. […] The change in absorbance between the blank and the reaction was used to calculate the amount to PPi produced for each sample. All reactions were linear with time and enzyme concentration. All assay tubes were pre-warmed to 37° C. prior to assaying and were initiated by the addition of enzyme.
To determine the extent of activation with or with out 3-PGA, 0.1 or 2.0 μg respectively, of purified maize wt-AGP was incubated for 12.5 minutes in the forward assay. To determine the activation constant for the maize wt AGP, 0.2 μg of purified maize wt-AGP was incubated for 12.5 minutes in the forward assay. 3-PGA concentrations ranged from 0-5.0 mM. Curves were fit using Graph Pad Prism using non-linear regression.

[2] = tested on: maize endosperm ADP-glucose pyrophosphorylase (AGP) variant QTCL (small subunit BT2 with tyrosine 36 to cysteine and glutamine inserted between serine 34 and …); assay: Activation and inhibition (Assay C, forward direction), QTCL AGP; format: biochemical, maize (Zea mays); conditions: QTCL compared to wild type AGP
Experimental: (§3) The QTCL construct (SEQ ID NO:7) encodes a maize AGP small subunit protein (SEQ ID NO:8) having a change from a tyrosine at amino acid position 36 to a cysteine and an insertion of a glutamine between the serine at amino acid position 34 and the threonine at amino acid position 35.
as §2

[3] = molecular target: T2, maize endosperm ADP-glucose pyrophosphorylase (AGP) variant QTCL (small subunit BT2 with tyrosine 36 to cysteine and glutamine inserted between serine 34 and th (Zea mays, UniProt P55241+Q947C0, INS34Q/Y36C)); assay: as above; format: biochemical; conditions: QTCL; effector varied 0-3 mM, 37° C., 10 minutes
T2 construct: purified heterotetramer
T2 sequence (Q947C0 with tags, fused parts or gaps INS34Q/Y36C): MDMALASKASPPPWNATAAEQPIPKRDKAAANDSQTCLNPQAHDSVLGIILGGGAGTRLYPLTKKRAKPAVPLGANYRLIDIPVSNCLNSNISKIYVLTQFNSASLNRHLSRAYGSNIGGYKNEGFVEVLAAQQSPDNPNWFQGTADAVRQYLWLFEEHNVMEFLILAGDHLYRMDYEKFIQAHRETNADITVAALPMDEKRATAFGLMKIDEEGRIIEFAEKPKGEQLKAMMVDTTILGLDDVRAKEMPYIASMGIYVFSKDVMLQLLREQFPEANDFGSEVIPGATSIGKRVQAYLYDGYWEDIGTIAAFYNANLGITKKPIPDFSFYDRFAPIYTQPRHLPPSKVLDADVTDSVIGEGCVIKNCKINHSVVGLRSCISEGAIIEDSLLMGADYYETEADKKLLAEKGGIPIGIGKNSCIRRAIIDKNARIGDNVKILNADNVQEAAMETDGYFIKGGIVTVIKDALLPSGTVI
T2 sequence (P55241 46-516): T1 sequence (P55241 46-516)
Experimental: as §3, §2

[4] = molecular target: T2, maize endosperm ADP-glucose pyrophosphorylase (AGP) variant QTCL (small subunit BT2 with tyrosine 36 to cysteine and glutamine inserted between serine 34 and th); assay: Enzyme kinetics (substrates), forward reaction, purified QTCL AGP; format: biochemical
Experimental: The QTCL construct (SEQ ID NO:7) encodes a maize AGP small subunit protein (SEQ ID NO:8) having a change from a tyrosine at amino acid position 36 to a cysteine and an insertion of a glutamine between the serine at amino acid position 34 and the threonine at amino acid position 35. […] The mutations were verified by sequence analysis.
as §1, §2
The QTCL mutant and wild type enzymes were purified from E. coli as described in the materials and methods.

[5] = molecular target: T1, maize endosperm ADP-glucose pyrophosphorylase (AGP), wild type (small subunit BT2 WT-STYL, SEQ ID NO: 2, with wild type large subunit Shrunken-2)
Experimental: E. coli strain AC70R1-504, which lacks the functional AGP gene and cannot synthesize glycogen, was transformed with both pMoncSh2 and pMoncBt2 (plasmids containing the large and small subunit of wt-AGP respectively). An overnight culture was grown with constant shaking at 225 rpm at 37° C. in LB media containing 75 ug/ml spectinomycin and 50 μg/ml kanamycin. An aliquot of the overnight culture (12.5 ml) was used to inoculate a 1 L flask containing the same media. The 1 L flask was grown until the OD600 reached 0.5-0.6. The cultures were cooled to room temperature and protein expression was induced by the addition of 0.2 mM isopropyl-beta-D-thiogalactoside (IPTG) and 0.02 mg/ml nalidixic acid. Expression continued for 3 hours at room temperature with constant shaking. Cells were centrifuged at 8000×g supernatant removed and stored as pellets at −80° C.
The 3-Phosphoglyceric acid (3-PGA) was added at varying amounts, as specified. When varied, the substrates ranged from 0-5 mM. Reactions were terminated after 5 minutes by boiling in a water bath for 1 minute. […] The change in absorbance between the blank and the reaction was used to calculate the amount to PPi produced for each sample. All reactions were linear with time and enzyme concentration. All assay tubes were pre-warmed to 37° C. prior to assaying and were initiated by the addition of enzyme. […]

Row | SMILES | Ka (3-PGA) [1] | Ka for the QTCL enzyme, fold higher than wild type AGP [2] | Ka (3-PGA) [3] | Vmax (ATP) ([4]; 10 mM 3-PGA, 37° C., 10 minutes) [µmol/min/mg] | Km ([4]; read-out: Km for ATP, 10 mM 3-PGA, 37° C., 10 minutes) [µM] | Vmax (ATP) ([5]; forward reaction, 10 mM 3-PGA, 37° C., 10 minutes) [µmol/min/mg] | Km ([5]; read-out: Km for ATP, forward reaction, 10 mM 3-PGA, 37° C., 10 minutes) [µM]
1 | O=C(O)[C@H](O)COP(=O)(O)O [3-PGA, 3-phosphoglyceric acid] | 0.57 ± 0.055 | approximately 2 -fold | 1.08 ± 0.13 | – | – | – | –
2 | Nc1ncnc2c1ncn2[C@@H]1O[C@H](COP(=O)(O)OP(=O)(O)OP(=O)(O)O)[C@@H](O)[C@H]1O [ATP] | – | – | – | 23.4 ± 0.53 | 140 ± 10 | 9.25 ± 0.32 | 66 ± 10
